Assay results published in patent publication US20130012709A1, “NOVEL INHIBITORS OF STEAROYL-CoA-DESATURASE-1 AND THEIR USES” (CENTRE NATIONAL DE LA RECHERCHE SCIENTIFIQUE, priority 2009, published 2013).
Like-named read-outs stand apart in the source and are kept apart here.

Columns and labels:
LNCaP cells [1] = assay: Proliferation assay (cell counting); assay type: cell-based, human; conditions: maximal dose used
Description: At 24 h, 48 h, 72 h and 96 h following addition of increasing concentrations of the tested compound in DMSO or DMSO alone, cells were trypsinized, pelleted by centrifugation at 1200 rpm for 5 min, resuspended in 500 μl of culture medium and counted in an hemocytometer.

C4-2 cells [2] = assay: Measurement of de novo fatty acid synthesis; assay type: cell-based; conditions: Homo sapiens, C4-2, 25 μM
Description: (§1) The tested inhibitor was added overnight at a final concentration of 25 μM to subconfluent cultures of cells grown in 6-wells plate in serum and fatty acid-free DMEM media supplemented with 0.2% BSA. Cultures were then labeled in triplicate with 1.0 μCi of [U—^14C]-palmitate or -stearate for 6 h, and total lipids were folch extracted with chloroform/methanol. Labeled lipids were subjected to TLC in hexane/diethyl ether/acetic acid 90:10:1 (V/V), to separate cholesterol ester, triglycerides and phospholipids. Standards were run for each of the lipid classes. After chromatography, labeled lipid classes were quantified by scintillation counting and radioactivity was normalized to DNA content.

LNCaP cells [3] = assay: Measurement of de novo fatty acid synthesis; assay type: cell-based; conditions: Homo sapiens
Description: as §1

C4-2 cells [4] = assay: Phospho-kinase array and immunoblot; assay type: cell-based, human
Description: (§2) Protein extracts and sodium dodecyl sulfate (SDS)-polyacrylamide gel electrophoresis (PAGE), electrotransfer and immunoblotting were performed as previously described (34). The primary antibodies rabbit anti-AMPK, rabbit anti-phospho AMPK (Thr172), rabbit anti-Akt and rabbit anti-phospho Akt were purchased from Cell signalling Technology (Ozyme, Saint Quentin Yvelines, France). The primary antibody mouse anti-tubulineα was purchased from Lab Vision (Thermo Fisher Scientific, Microm France, Francheville, France). The primary antibodies rabbit anti-p44/p42 MAPK, rabbit anti-phospho p44/p42 MAPK (Thr202/Tyr204), mouse anti-GSK3α/β, and rabbit anti-phospho GSK3α/β were kindly provided by Dr Gilles Freiss. LNCaP and C4-2 cells treated with the tested compound at 25 μM were analyzed for the relative phosphorylation of 46 kinase phosphorylation sites using human phospho-kinase array kit (Proteome Profiler™) according to the manufacturers' recommendations (R&D systems Europe, Lille, France).

LNCaP cells [5] = assay: Phospho-kinase array and immunoblot; assay type: cell-based, human
Description: as §2

C4-2 tumor xenografts = assay: Subcutaneous xenograft, curative treatment; assay type: in vivo, mice
Description: (§3) Male athymic nude Mice (Foxn1 nu/nu) (Harlan, Grannat, France) were used at the age of 7 weeks (weight 25-30 g). All procedures were performed in compliance with the European Convention for the Protection of Vertebrate Animals Used for Experimentation (animal house agreement # B-34-172-27, authorization for animal experimentation #34.324). Experiments were done at least twice for each tested condition. Animals were sacrificed before they became compromised. Xenografts were established by subcutaneously injecting 2×10^6 LNCaP cells, 2×10^6 C4-2 cells or 5×10^5 MEFs SV40 in 100 μl of a Matrigel solution. For curative experiments, tumors were allowed to growth until they were measurable with a caliper. In each group, the mice were randomized and given SCD-1 inhibitor at 80 mg/kg in 100 μl of a labrafil-DMA-tween^80 solution (89:10:1) (treated group) or vehicle alone (control group), by daily intra-peritoneal (i.p.) injection 5 days of week. For preventive experiments, the mice were treated daily for 7 days before the day of xenograft. Tumor volume measurements were taken twice to three times a week and calculated according to the formula: length×width×height×0.5236. Data are expressed as the mean tumor volume or as fold of the start point tumor volume. For survival analysis, animals bearing pre-established C4-2 tumors were treated with BZ36 at 80 mg/kg or 160 mg/kg or with vehicle by daily i.p. injection 5 days of week. All mice were monitored for survival until tumor volume had reached 2000 mm^3 or until death. Analysis of survival was conducted by a log-rank test based on the Kaplan-Meier method. At euthanasia, tumors were excised and fixed in 4% formalin for immunohistological analyses.
(§4) Immunohistochemical analysis of SCD-1 expression was performed using high-density Tissue Microarray (TMA) slide (Accumax array) with 39 prostate adenocarcinoma spots from different patients (Gleason scores from 5 to 9) with corresponding normal tissues. Immunohistochemical analysis of pcna expression was performed on […] paraffin-embedded sections of LNCaP, C4-2 of Ras SV40 MEFs tumor xenografts. Briefly, after antigen retrieval, deparaffinized sections were blocked of Fc receptors with PBS containing 5% goat serum and then incubated with corresponding anti-SCD-1 mouse antibody, 1:50 (Abcam, Paris, France) or anti-pcna mouse antibody, 1:50 (Santa Cruz) in PBS-Tween 0.1%, overnight at 4° C. […] Sections were counterstained with Mayer's hematoxylin. […] Sections were mounted in mowiol and analysed rapidly.

LNCaP tumor xenografts = assay: Subcutaneous xenograft, curative treatment; assay type: in vivo, mice
Description: as §3, §4

[6] = Toxicity in nude mice after daily i.p. injection; assay type: in vivo
Description: as §3, with “For survival analysis, animals bearing pre-established C4-2 tumors were treated with BZ36 at 80 mg/kg or 160 mg/kg or with vehicle by daily i.p. injection 5 days of week.” left out, “Analysis of survival was conducted by a log-rank test based on the Kaplan-Meier method. At euthanasia, tumors were excised and fixed in 4% formalin for immunohistological analyses.” left out

transformed MEFs = assay: Apoptosis, annexinV-FITC flow cytometry; assay type: cell-based, mouse; conditions: all transformed cells, 25 μM, 24 h
Description: Cells were then rinsed in PBS, pelleted at 400 g for 5 min and maintained on ice for 20 min before resuspension in a […] propidium iodide (Sigma) solution. Cells were kept overnight at 4° C. and the percentages of cells in G1, S and G2-M phases of the cell cycle were measured with a Coulter Epics XL™ flow cytometer (Becton Dickinson) using 488-nm laser excitation. For apoptosis experiment, MEFs were treated with the tested compound at 25 μM for 24 h, then rinced in PBS, pelleted at 400 g for 5 min and stained with annexinV-FITC (Roche Diagnostics, Meylan, France) for 15 min at 4° C. The percentage of annexin positive cells was immediately analysed using 488-nm laser excitation.

[7] = read-out: inhibition of [U-14C]-palmitate incorporation into phospholipids
[8] = read-out: inhibition of [U-14C]-palmitate incorporation into sterol esters
[9] = read-out: inhibition of [U-14C]-palmitate incorporation into triglycerides
[10] = read-out: inhibition of [U-14C]-stearate incorporation into phospholipids
[11] = read-out: inhibition of [U-14C]-stearate incorporation into sterol esters
[12] = read-out: inhibition of [U-14C]-stearate incorporation into triglycerides

COc1ccc(Br)c(C(=O)N2CCN(c3ccc(C(=O)NCCCc4ccccc4)cn3)CC2)c1 [BZ36]
inhibition of cell proliferation (LNCaP cells [1]): 100% | inhibition at 25 µM (C4-2 cells [2]; [7]): 41% | inhibition at 25 µM (C4-2 cells [2]; [8]): 33% | inhibition at 25 µM (C4-2 cells [2]; [9]): 24% | inhibition at 25 µM (C4-2 cells [2]; [10]): 49% | inhibition at 25 µM (C4-2 cells [2]; [11]): 70% | inhibition at 25 µM (C4-2 cells [2]; [12]): 19% | inhibition at 25 µM (LNCaP cells [3]; [7]): 58% | inhibition at 25 µM (LNCaP cells [3]; [8]): 39% | inhibition at 25 µM (LNCaP cells [3]; [9]): 27% | inhibition at 25 µM (LNCaP cells [3]; [10]): 81% | inhibition at 25 µM (LNCaP cells [3]; [11]): 77% | inhibition at 25 µM (LNCaP cells [3]; [12]): 78% | phosphorylation of GSK3a/13 (C4-2 cells [4]; C4-2): abrogated | phosphorylation of AMPKcc (C4-2 cells [4]; C4-2, 25 μM): increased | Akt phosphorylation (5473/T308) (C4-2 cells [4]; C4-2, 25 μM, vs non-treated cells): decrease | phosphorylation of ERK1/2 (C4-2 cells [4]; C4-2, immunoblot): decreased phosphorylation | phosphorylation of MEK1/2 (S218/5222, S222/S226) (C4-2 cells [4]; C4-2, vs control cells): Significant decreases | phosphorylation of GSK3a/13 (LNCaP cells [5]): abrogated | phosphorylation of AMPKcc (LNCaP cells [5]; 25 μM): increased | Akt phosphorylation (5473/T308) (LNCaP cells [5]; 25 μM, vs non-treated cells): decrease | phosphorylation of ERK1/2 (LNCaP cells [5]; immunoblot): decreased phosphorylation | mice with tumor volume increased more than 4-fold (C4-2 tumor xenografts; C4-2, 80 mg/kg, 42% of vehicle-treated mice): 12% | xenografted mice with tumor regression (C4-2 tumor xenografts; C4-2, 80 mg/kg, no regression in control mice): 19% | tumor volume and tumor growth rate (C4-2 tumor xenografts; C4-2 xenograft, 80 mg/kg i.p., vs vehicle): significantly reduced | decrease of proliferative tumor cells (PCNA immunostaining) (C4-2 tumor xenografts; C4-2 xenografts, 80 mg/kg, vs control animals): 41% | tumor volume and tumor growth rate (LNCaP tumor xenografts; LNCaP xenograft, 80 mg/kg i.p., vs vehicle): significantly reduced | decrease of proliferative tumor cells (PCNA immunostaining) (LNCaP tumor xenografts; LNCaP xenografts, 80 mg/kg, vs control animals): 50% | mice with tumor volume increased more than 4-fold (LNCaP tumor xenografts; LNCaP, 80 mg/kg, 42% of vehicle-treated mice): 18% | xenografted mice with tumor regression (LNCaP tumor xenografts; LNCaP, 80 mg/kg, no regression in control mice): 27% | histological examination of liver and skin [6]: absence of toxicity | weight loss or other toxicity [6]: no significant weight loss or other toxicity | cell death (annexin V-positive cells) (transformed MEFs): strong induction of cell death
